Test results from US12433877B2, “Sustained release drug delivery systems and related methods” (Durect Corporation, priority 2021, dated 2025).
Where a name gives a salt, the structure may show the parent alone.

Tests used:
[1] = test system: patients undergoing elective arthroscopic shoulder surgery; assay: Example 1 / Study 1: pain intensity and opioid rescue after arthroscopic shoulder surgery; assay type: in vivo, human; settings: ITT, HCl
[2] = test system: patients, abdominal surgeries; assay: Adverse reactions pooled from laparoscopic, laparoscopically-assisted and open abdominal surgery studies; assay type: in vivo, human; settings: adjusted percentage
[3] = test system: patients undergoing elective arthroscopic shoulder surgery; assay: Example 1 / Study 1: adverse events and 6-month follow-up safety; assay type: in vivo, human
Excerpt: The incidence of adverse events (AEs); the incidence of bupivacaine-related CNS side effects; clinical laboratory tests; vital signs; 12-lead ECGs; and physical examinations.
Evaluation by the investigator of wound healing and tissue conditions at the surgical wound on Days 7 and 14, and at the 6-month follow-up visit. An MRI of the shoulder as well as a functionality assessment of the shoulder using the Constant-Murley score were to be performed at the 6-month follow-up visit.
There were three studies evaluating the safety of Formulation A administered during shoulder surgery. […]
Additional follow-up safety data consisting of shoulder MRI, physical examination of the shoulder, and assessments of wound healing were collected at 6 months in Study 1 and at 18 months in Study 2. […]

pregnant rabbits = assay: Embryo-fetal development study, subcutaneous, rabbits; assay type: in vivo
Experimental: (§1) There are no studies conducted with Formulation A in pregnant women. […] Based on animal data, advise pregnant women of the potential risks to a fetus. [see Data]
Bupivacaine hydrochloride was administered subcutaneously to rats at doses of 4.4, 13.3, & 40 mg/kg and to rabbits at doses of 1.3, 5.8, & 22.2 mg/kg during the period of organogenesis (implantation to closure of the hard palate). The high doses are approximately 0.6 times the daily maximum recommended human dose (MRHD) of 660 mg/day on a mg/m^2 body surface area (BSA) basis.

rats = assay: Rat pre- and post-natal development study; assay type: in vivo; settings: 40 mg/kg subcutaneous, implantation through weaning
Experimental: as §1
The high dose is approximately 0.6 times the daily MRHD of 660 mg/day on a BSA basis.

## CCCCN1CCCCC1C(=O)Nc1c(C)cccc1C (stereo not shown) [Bupivacaine HCl]
[1]; 0-72 hours after surgery
  Total IV morphine equivalent dose of opioid rescue medication, median: 8.0 mg
[1]; Kaplan-Meier
  Time to first use of opioid rescue medication, median (95% CI): 1.4 (1.0, 4.1) hours
[2]
  Adverse reaction: Abdominal distension: (4.8%)
  Adverse reaction: Abdominal pain: (0.5%)
  Adverse reaction: Abdominal pain upper: (1.0%)
  Adverse reaction: Anemia: (0.7%)
  Adverse reaction: Body temperature increased: 0%
  Adverse reaction: Chest pain: (0.5%)
  Adverse reaction: Constipation: (41.8%)
  Adverse reaction: Cough: (1.8%)
  Adverse reaction: Diarrhea: (5.5%)
  Adverse reaction: Dizziness: (30.1%)
  Adverse reaction: Dry mouth: (1.0%)
  Adverse reaction: Dysgeusia: (16.9%)
  Adverse reaction: Dyspepsia: (1.9%)
  Adverse reaction: Flatulence: (4.0%)
  Adverse reaction: Headache: (32.3%)
  Adverse reaction: Hypertension: (3.6%)
  Adverse reaction: Hypokalemia: (1.4%)
  Adverse reaction: Ileus: (0.7%)
  Adverse reaction: Incision site erythema: (2.7%)
  Adverse reaction: Incision site hematoma: (1.7%)
  Adverse reaction: Incision site hemorrhage: (3.0%)
  Adverse reaction: Incision site infection: (2.5%)
  Adverse reaction: Insomnia: (2.9%)
  Adverse reaction: Musculoskeletal pain: (4.9%)
  Adverse reaction: Nasopharyngitis: 0%
  Adverse reaction: Nausea: (59.6%)
  Adverse reaction: Oropharyngeal pain: (1.0%)
  Adverse reaction: Pain in extremity: (2.8%)
  Adverse reaction: Paresthesia: (13.1%)
  Adverse reaction: Post procedural contusion (bruising): (61.8%)
  Adverse reaction: Post procedural discharge: (4.4%)
  Adverse reaction: Procedural pain: (17.8%)
  Adverse reaction: Pruritus: (18.7%)
  Adverse reaction: Pyrexia: (5.7%)
  Adverse reaction: Rash: (3.8%)
  Adverse reaction: Somnolence: (41.0%)
  Adverse reaction: Urinary retention: (1.2%)
  Adverse reaction: Vomiting: (21.0%)
  Adverse reaction: Wound dehiscence: (1.5%)
[3]; 6-month follow-up
  Constant-Murley score decreased from baseline: (0%)
  Constant-Murley score, follow-up, mean: 65.6
  Shoulder MRI: Improved compared with pre-surgical MRI: (24.0%)
  Shoulder MRI: No change compared with pre-surgical MRI: (36.0%)
  Shoulder MRI: Worsened compared with pre-surgical MRI: (40%)
[3]; Table 4.1, Study 1
  Adverse reaction: Electrocardiogram T wave inversion: 0%
  Adverse reaction: Headache: 1 (3.4%)
  Adverse reaction: Hypoesthesia: 1 (3.4%)
  Adverse reaction: Pruritus generalized: 0%
[3]; safety population
  All TEAEs: 37.9%
  TEAE: Alanine aminotransferase increased: 0.0%
  TEAE: Cardiac disorders: 10.3%
  TEAE: Gastrointestinal disorders: 3.4%
  TEAE: General disorders and administration site conditions: 0.0%
  TEAE: Headache: 3.4%
  TEAE: Injury, poisoning and procedural complications: 0.0%
  TEAE: Investigations: 6.9%
  TEAE: Musculoskeletal and connective tissue disorders: 6.9%
  TEAE: Musculoskeletal pain: 6.9%
  TEAE: Nausea: 3.4%
  TEAE: Nervous system disorders: 13.8%
  TEAE: Respiratory, thoracic and mediastinal disorders: 6.9%
  TEAE: Skin and subcutaneous tissue disorders: 6.9%
Pregnant rabbits; 22.2 mg/kg subcutaneous, organogenesis, rabbits
  Embryo-fetal deaths at the high dose: An increase in embryo-fetal deaths was observed
Pregnant rabbits; female, rabbit, in vivo
  Fetal No Observed Adverse Effect Level: approximately 0.2 times the MRHD
rats
  Pup survival at the high dose: decreased pup survival was observed
